System: IL-1b
Experiment: Mouse BMDM IL-1b Assay
Type: cell-based
Settings: Macrophage; C57BL6 bone marrow derived macrophages; 200 ng/mL Ultrapure LPS-B5 3 hours, compound 30 minutes, 5 mM ATP 45 minutes; mouse IL-1b ELISA of supernatant
Experimental: Example 8: Mouse BMDM IL-1b Assay
Mouse bone marrow cells from C57BL6 tibia and femur were culture in complete Isocov's Media supplemented with 20 ng/mL MCSF (BMDM media) at a density of 50 million cells/15 cm Petri dish. Fresh media was changed every 3 days, and bone marrow derived macrophages were collected, washed, and counted on day 7. Cells were seeded into 96 well plates at a density of 5×10^4 cells per well in 100 uL of BMDM media and cultured overnight. The cells were stimulated at 37° C. with 200 ng/mL Ultrapure LPS-B5 for 3 hours before pre-diluted compounds were added. 30 minutes after compound addition, 5 mM ATP was added for the secondary stimulation for 45 minutes. After stimulation, the plates were briefly spun down, and 50 uL of supernatant was harvested from each well. ELISA for mouse IL-1b was performed with 1:10 and 1:100 diluted supernatant using pre-coated kits. IL-1b concentrations were calculated based on pre-titrated standards, and compound inhibition IC50 is generated using the Levenberg Marquardt damped lease-square method.

IC50 [µM]	Structure (SMILES)
0.1 to 1	CC(C)c1cccc(C(C)C)c1CC(=O)NS(=O)(=O)c1cc2c(o1)C1CCC(CC1)C2(C)O (stereo not shown) [Compound 38, 2-(2,6-diisopropylphenyl)-N-((4-hydroxy-4-methyl-5,6,7,8-tetrahydro-4H-5,8-ethanocyclohepta[b]furan-2-yl)sulfonyl)acetamide]
0.1 to 1	CC(C)c1ccc(F)c(C(C)C)c1NC(=O)NS(=O)(=O)c1cc2c(o1)C1CCC(C1)C2O (stereo not shown) [Compound 37, N-((3-fluoro-2,6-diisopropylphenyl)carbamoyl)-4-hydroxy-5,6,7,8-tetrahydro-4H-5,8-methanocyclohepta[b]furan-2-sulfonamide]
< 0.1	CC(C)c1cccc(C(C)C)c1NC(=O)NS(=O)(=O)c1cc2c(o1)C1CCC(C1)C2(C)O (stereo not shown) [Compound 27, N((2,6-diisopropylphenyl)carbamoyl)-4-hydroxy-4-methyl-5,6,7,8-tetrahydro-4H-5,8-methanocyclohepta[b]furan-2-sulfonamide]
< 0.1	O=C(Nc1c2c(cc3c1CCC3)CCC2)NS(=O)(=O)c1cc2c(s1)C1CCC(C1)C2O (stereo not shown) [Compound 48, N-((1,2,3,5,6,7-hexahydro-s-indacen-4-yl)carbamoyl)-4-hydroxy-5,6,7,8-tetrahydro-4H-5,8-methanocyclohepta[b]thiophene-2-sulfonamide]
< 0.1	CC1(O)c2cc(S(=O)(=O)NC(=O)Nc3c4c(cc5c3CCC5)CCC4)sc2C2CCC1C2 (stereo not shown) [Compound 47, N-((1,2,3,5,6,7-hexahydro-s-indacen-4-yl)carbamoyl)-4-hydroxy-4-methyl-5,6,7,8-tetrahydro-4H-5,8-methanocyclohepta[b]thiophene-2-sulfonamide]
0.1 to 1	C[C@@]1(O)c2cc(S(=O)(=O)NC(=O)Nc3c4c(cc5c3CCC5)CCC4)oc2[C@H]2CC[C@@H]1C2 [Compound 39, (4S,5R,8S)-N-((1,2,3,5,6,7-hexahydro-s-indacen-4-yl)carbamoyl)-4-hydroxy-4-methyl-5,6,7,8-tetrahydro-4H-5,8-methanocyclohepta[b]furan-2-sulfonamide]
0.1 to 1	CC(C)c1cc(Cl)cc(C(C)C)c1NC(=O)NS(=O)(=O)c1cc2c(o1)C1CCC(C1)C2(C)O (stereo not shown) [Compound 29, N-((4-chloro-2,6-diisopropylphenyl)carbamoyl)-4-hydroxy-4-methyl-5,6,7,8-tetrahydro-4H-5,8-methanocyclohepta[b]furan-2-sulfonamide]
< 0.1	CC1(O)c2cc(S(=O)(=O)NC(=O)Nc3c4c(cc5c3CCC5)CCC4)oc2C2CCC1CC2 (stereo not shown) [Compound 21, N-((1,2,3,5,6,7-hexahydro-s-indacen-4-yl)carbamoyl)-4-hydroxy-4-methyl-5,6,7,8-tetrahydro-4H-5,8-ethanocyclohepta[b]furan-2-sulfonamide]
< 0.1	O=C(Nc1c2c(c(Cl)c3c1CCC3)CCC2)NS(=O)(=O)c1cc2c(o1)C1CCC(C1)C2O (stereo not shown) [Compound 19, N-((8-chloro-1,2,3,5,6,7-hexahydro-s-indacen-4-yl)carbamoyl)-4-hydroxy-5,6,7,8-tetrahydro-4H-5,8-methanocyclohepta[b]furan-2-sulfonamide]
< 0.1	C[C@]1(O)c2cc(S(=O)(=O)NC(=O)Nc3c4c(cc5c3CCC5)CCC4)oc2C2CCC1CC2 [Compound 44, (R)-N-((1,2,3,5,6,7-hexahydro-s-indacen-4-yl)carbamoyl)-4-hydroxy-4-methyl-5,6,7,8-tetrahydro-4H-5,8-ethanocyclohepta[b]furan-2-sulfonamide]
< 0.1	O=C(Nc1c2c(cc3c1CCC3)CCC2)NS(=O)(=O)c1cc2c(o1)C1CCC(CC1)C2=O [Compound 23, N-((1,2,3,5,6,7-hexahydro-s-indacen-4-yl)carbamoyl)-4-oxo-5,6,7,8-tetrahydro-4H-5,8-ethanocyclohepta[b]furan-2-sulfonamide]
< 0.1	C[C@]1(O)c2cc(S(=O)(=O)NC(=O)Nc3c4c(cc5c3CCC5)CCC4)oc2[C@H]2CC[C@@H]1C2 [Compound 40, (4R,5R,8S)-N-((1,2,3,5,6,7-hexahydro-s-indacen-4-yl)carbamoyl)-4-hydroxy-4-methyl-5,6,7,8-tetrahydro-4H-5,8-methanocyclohepta[b]furan-2-sulfonamide]
0.1 to 1	O=C(Nc1c2c(c(Br)c3c1CCC3)CCC2)NS(=O)(=O)c1cc2c(o1)C1CCC(C1)C2O (stereo not shown) [Compound 17, N-((8-bromo-1,2,3,5,6,7-hexahydro-s-indacen-4-yl)carbamoyl)-4-hydroxy-5,6,7,8-tetrahydro-4H-5,8-methanocyclohepta[b]furan-2-sulfonamide]
< 0.1	CC1(O)c2cc(S(=O)(=O)NC(=O)Nc3c4c(c(Cl)c5c3CCC5)CCC4)oc2C2CCC1C2 (stereo not shown) [Compound 20, N-((8-chloro-1,2,3,5,6,7-hexahydro-s-indacen-4-yl)carbamoyl)-4-hydroxy-4-methyl-5,6,7,8-tetrahydro-4H-5,8-methanocyclohepta[b]furan-2-sulfonamide]
< 0.1	O=C(Nc1c2c(cc3c1CCC3)CCC2)NS(=O)(=O)c1cc2c(o1)C1CCC(CC1)C2O (stereo not shown) [Compound 22, N-((1,2,3,5,6,7-hexahydro-s-indacen-4-yl)carbamoyl)-4-hydroxy-5,6,7,8-tetrahydro-4H-5,8-ethanocyclohepta[b]furan-2-sulfonamide]
0.1 to 1	CC(C)c1ccc(Cl)c(C(C)C)c1NC(=O)NS(=O)(=O)c1cc2c(o1)C1CCC(C1)C2(C)O (stereo not shown) [Compound 26, N-((3-chloro-2,6-diisopropylphenyl)carbamoyl)-4-hydroxy-4-methyl-5,6,7,8-tetrahydro-4H-5,8-methanocyclohepta[b]furan-2-sulfonamide]
0.1 to 1	CC(C)c1ccc(Cl)c(C(C)C)c1NC(=O)NS(=O)(=O)c1cc2c(o1)C1CCC(C1)C2O (stereo not shown) [Compound 25, N-((3-chloro-2,6-diisopropylphenyl)carbamoyl)-4-hydroxy-5,6,7,8-tetrahydro-4H-5,8-methanocyclohepta[b]furan-2-sulfonamide]
< 0.1	CC1(O)c2cc(S(=O)(=O)NC(=O)Nc3c4c(cc5c3CCC5)CCC4)oc2C2CCC1C2 (stereo not shown) [Compound 6, N-((1,2,3,5,6,7-hexahydro-s-indacen-4-yl)carbamoyl)-4-hydroxy-4-methyl-5,6,7,8-tetrahydro-4H-5,8-methanocyclohepta[b]furan-2-sulfonamide]
1 to 10	CC(C)c1cccc(C(C)C)c1CC(=O)NS(=O)(=O)c1cc2c(o1)C1CCC(C1)C2O (stereo not shown) [Compound 15, 2-(2,6-diisopropylphenyl)-N-((4-hydroxy-5,6,7,8-tetrahydro-4H-5,8-methanocyclohepta[b]furan-2-yl)sulfonyl)acetamide]
1 to 10	CC(C)c1cccc(C(C)C)c1CC(=O)NS(=O)(=O)c1cc2c(o1)C1CCC(C1)C2=O (stereo not shown) [Compound 14, 2-(2,6-diisopropylphenyl)-N-((4-oxo-5,6,7,8-tetrahydro-4H-5,8-methanocyclohepta[b]furan-2-yl)sulfonyl)acetamide]
< 0.1	CC1(O)c2cc(S(=O)(=O)NC(=O)Nc3c4c(c(F)c5c3CCC5)CCC4)oc2C2CCC1C2 (stereo not shown) [Compound 30, N-((8-fluoro-1,2,3,5,6,7-hexahydro-s-indacen-4-yl)carbamoyl)-4-hydroxy-4-methyl-5,6,7,8-tetrahydro-4H-5,8-methanocyclohepta[b]furan-2-sulfonamide]
< 0.1	CC1(O)c2cc(S(=O)(=O)NC(=O)Nc3c4c(cc5c3CCC5)CCC4)sc2C2CCC1CC2 (stereo not shown) [Compound 45, N-((1,2,3,5,6,7-hexahydro-s-indacen-4-yl)carbamoyl)-4-hydroxy-4-methyl-5,6,7,8-tetrahydro-4H-5,8-ethanocyclohepta[b]thiophene-2-sulfonamide]
0.1 to 1	O=C(Nc1c2c(cc3c1CCC3)CCC2)NS(=O)(=O)c1cc2c(o1)[C@H]1CC[C@H](C1)C2O (stereo partly drawn) [Compound 49, (5R,8S)-N-((1,2,3,5,6,7-hexahydro-s-indacen-4-yl)carbamoyl)-4-hydroxy-5,6,7,8-tetrahydro-4H-5,8-methanocyclohepta[b]furan-2-sulfonamide]
0.1 to 1	CC(C)c1cccc(C(C)C)c1CC(=O)NS(=O)(=O)c1cc2c(o1)C1CCC(C1)C2(C)O (stereo not shown) [Compound 16, 2-(2,6-diisopropylphenyl)-N-((4-hydroxy-4-methyl-5,6,7,8-tetrahydro-4H-5,8-methanocyclohepta[b]furan-2-yl)sulfonyl)acetamide]
< 0.1	O=C(Nc1c2c(cc3c1CCC3)CCC2)NS(=O)(=O)c1ccc2c(c1)C(=O)C1CCC2CC1 [Compound 32, N-((1,2,3,5,6,7-hexahydro-s-indacen-4-yl)carbamoyl)-9-oxo-6,7,8,9-tetrahydro-5H-5,8-ethanobenzo[7]annulene-2-sulfonamide]
< 0.1	C[C@]1(O)c2cc(S(=O)(=O)NC(=O)Nc3c4c(cc5c3CCC5)CCC4)oc2[C@@H]2CC[C@H]1C2 [Compound 42, (4R,5S,8R)-N-((1,2,3,5,6,7-hexahydro-s-indacen-4-yl)carbamoyl)-4-hydroxy-4-methyl-5,6,7,8-tetrahydro-4H-5,8-methanocyclohepta[b]furan-2-sulfonamide]
< 0.1	O=C(Nc1c2c(cc3c1CCC3)CCC2)NS(=O)(=O)c1cc2c(o1)C1CCC(C1)C2=O (stereo not shown) [Compound 7, N-((1,2,3,5,6,7-hexahydro-s-indacen-4-yl)carbamoyl)-4-oxo-5,6,7,8-tetrahydro-4H-5,8-methanocyclohepta[b]furan-2-sulfonamide]
0.1 to 1	CC1(O)c2cc(S(=O)(=O)NC(=O)Nc3c4c(cc5c3CCC5)CCC4)ccc2C2CCC1CC2 (stereo not shown) [Compound 34, N-((1,2,3,5,6,7-hexahydro-s-indacen-4-yl)carbamoyl)-9-hydroxy-9-methyl-6,7,8,9-tetrahydro-5H-5,8-ethanobenzo[7]annulene-2-sulfonamide]
